Measured values from patent publication US20260297165A1, “COMPOSITIONS AND METHODS FOR EXPRESSING THERAPEUTICS” (priority 2023, published 2026).

Columns and labels:
C3c = target: T1, C3c (Homo sapiens, UniProt P01024); assay: Binding affinity to C3c by Biacore
T1 construct: C3, C3b and C3c proteins were immobilized in flow cell 2 or 4

C3 = C3 (Homo sapiens, UniProt P01024); assay: Binding affinity to C3 by Biacore
Description: (§1) The estimated IC50 of the C3i fusion proteins were measured as shown above. Next their binding affinity with Complement C3b, C3c, and C3 was tested. Binding affinity was measured using Biacore. Biosensor analysis was performed at room temperature in a running buffer (1×HBS, 20 mM NaH2PO4-Na2HPO4·H2O, 150 mM NaCl, pH 7.4, supplemented with 0.005% (v/v) surfactant P20), using a Biacore 3000 optical biosensor equipped with a research-grade CM5 sensor chip. C3, C3b and C3c proteins were immobilized in flow cell 2 or 4 via standard amine coupling, leaving Fc1 or 3 unmodified to serve as a reference surface. The immobilization levels of proteins were calculated using Rmax=100 RU and the ratio of ligand molecular weight/analyte molecular. Data analysis was conducted using the BIAevaluation software. All sensorgrams were double-referenced by subtracting the response on a reference flow cell and a blank sample. Five 2× serial dilution samples were injected sequentially from low concentration to high concentration of proteins at a flow rate of 30 μL/min (300 seconds for each), followed by a dissociation time of 900 seconds. Calculations of kinetic parameters were conducted assuming a simple 1:1 (Langmuir) binding.
(§2) After the testing concentrating was optimized for individual proteins, they were applied on the immobilized chip, and association rate constant (Ka, M^−1s^−1), dissociation constant (Kd, s^−1), equilibrium dissociation constant (KD, M), maximal feasible signal (Rmax), and chi^2 were recorded. The results for complement C3b, C3c, and C3 are listed in Table 22, Table 23, and Table 24, respectively. […] The estimated IC50 of C3i and its fusion proteins and their binding affinity (KD) against C3b, C3c, and C3 are shown in Table 25. When KD values were plotted against estimated IC50, they correlated well with each other for C3b (FIG. 23A) and C3c (FIG. 23B) and, in most cases, for C3 (FIG. 23C).

C3b = C3b (Homo sapiens, UniProt P01024); assay: Binding affinity to C3b by Biacore
Chain of C3b (P01024 23-667 limits assumed): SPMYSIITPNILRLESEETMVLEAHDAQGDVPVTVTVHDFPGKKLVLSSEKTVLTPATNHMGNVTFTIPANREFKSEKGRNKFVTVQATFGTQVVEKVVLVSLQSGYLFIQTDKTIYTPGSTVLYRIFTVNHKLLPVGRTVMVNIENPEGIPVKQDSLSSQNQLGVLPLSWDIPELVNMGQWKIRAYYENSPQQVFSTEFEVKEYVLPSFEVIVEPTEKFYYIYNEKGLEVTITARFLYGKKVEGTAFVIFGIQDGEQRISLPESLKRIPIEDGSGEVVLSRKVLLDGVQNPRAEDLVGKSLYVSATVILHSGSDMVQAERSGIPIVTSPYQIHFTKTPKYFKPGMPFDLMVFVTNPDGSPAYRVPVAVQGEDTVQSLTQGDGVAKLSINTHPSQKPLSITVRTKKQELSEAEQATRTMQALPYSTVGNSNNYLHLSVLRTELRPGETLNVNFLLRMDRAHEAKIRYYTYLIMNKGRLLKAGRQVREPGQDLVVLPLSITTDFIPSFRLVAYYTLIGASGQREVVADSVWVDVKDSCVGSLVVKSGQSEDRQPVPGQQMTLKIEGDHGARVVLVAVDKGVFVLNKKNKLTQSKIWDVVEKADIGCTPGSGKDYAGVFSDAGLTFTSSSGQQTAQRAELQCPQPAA
Chain of C3b (P01024 749-1663 partner limits assumed): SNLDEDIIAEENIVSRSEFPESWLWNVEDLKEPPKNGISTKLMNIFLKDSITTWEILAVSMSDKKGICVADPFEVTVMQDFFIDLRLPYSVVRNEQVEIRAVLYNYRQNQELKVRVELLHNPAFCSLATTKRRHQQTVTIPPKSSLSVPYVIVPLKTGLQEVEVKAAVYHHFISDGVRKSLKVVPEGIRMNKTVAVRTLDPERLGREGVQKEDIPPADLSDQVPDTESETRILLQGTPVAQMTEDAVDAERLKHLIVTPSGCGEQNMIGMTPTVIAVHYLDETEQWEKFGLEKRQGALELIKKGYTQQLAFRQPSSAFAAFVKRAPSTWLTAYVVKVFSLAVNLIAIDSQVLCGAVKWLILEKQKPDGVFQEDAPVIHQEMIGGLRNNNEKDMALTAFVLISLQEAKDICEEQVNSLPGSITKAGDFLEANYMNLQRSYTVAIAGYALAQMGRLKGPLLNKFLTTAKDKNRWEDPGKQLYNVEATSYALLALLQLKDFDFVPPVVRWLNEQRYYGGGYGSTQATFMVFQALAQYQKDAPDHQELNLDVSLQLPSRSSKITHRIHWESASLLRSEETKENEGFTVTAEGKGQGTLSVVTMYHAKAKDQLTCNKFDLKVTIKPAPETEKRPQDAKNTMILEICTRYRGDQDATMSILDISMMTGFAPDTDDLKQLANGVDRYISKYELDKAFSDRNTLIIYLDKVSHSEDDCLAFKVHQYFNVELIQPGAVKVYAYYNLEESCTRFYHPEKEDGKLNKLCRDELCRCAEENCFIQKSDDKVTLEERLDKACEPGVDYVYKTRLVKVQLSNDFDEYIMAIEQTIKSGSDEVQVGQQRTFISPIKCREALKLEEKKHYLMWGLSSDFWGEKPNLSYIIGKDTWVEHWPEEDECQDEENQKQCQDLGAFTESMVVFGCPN
Description: as §1, §2

Hep1c1c7 cells = assay: Cell lysis inhibition assay (normal human serum, WST-8); format: cell-based; conditions: NHS dose causing 70% cell lysis
Description: To test biological function of sCD59, cell lysis inhibition assay was performed using Hep1c1c7 cells. The serum dose causing approximately 70% cell lysis was determined for the new normal human serum (NHS) before the purified sCD59 proteins were used for cell lysis inhibition assay. Three hours prior to the experiment, 1×10^4 cells per well were seeded onto a 96-well plate. Various doses of NHS were mixed with GVB2++ buffer (with Ca^2+ and Mg^2+) (Complement Technology, Cat. B100). 100 μL of mixture was added to each well. Background lysis was measured using GVB2++ buffer only and maximum lysis was measured by lysing all the cells with Maximum Lysis Buffer (GVB2++ plus 1% SDS). […] The absorbance at 450 nm was measured using a microplate reader. To calculate the percentage of live cells, the absorbance was subtracted by the Max Lysis, divided by Background Lysis minus Max Lysis and multiplied by 100, which equaled the % of live cells. The % of dead cells was calculated by subtracting 100 by the % of live cells. In the GraphPad Prism, the % of cell death was plotted against dose of NHS, and the dose of NHS causing 50% and 70% hemolysis was respectively determined (FIG. 15A). […]
To test biological function of vsCD59, cell lysis inhibition assay is performed using Hep1c1c7 cells. […] The absorbance at 450 nm is measured using a microplate reader. […]

NIH-3T3 cells = assay: cGMP production in NIH-3T3 cells; format: cell-based
rabbit erythrocytes = assay: Hemolysis inhibition assay with rabbit erythrocytes and normal human serum; format: cell-based
Description: In parallel, serum dose causing approximately 70% hemolysis was determined for new normal human serum (NHS) before the purified proteins were used for a hemolysis inhibition assay. Various doses of NHS were mixed with rabbit erythrocytes (Cat. B300, Complement Technology) in the presence of 0.1 M Mg2+ EGTA (Cat. B106, Complement Technology). Background lysis was measured using GVBE (GVBo plus 20 mM EDTA, pH 7.4), and maximum lysis was measured by lysing all the cells with Maximum Lysis Buffer (GVBo+0.2% NP40). After all the samples were mixed on ice, they were transferred to 37° C. water bath. The samples were vortexed every 5 minutes and incubated for 30 minutes in total. 1 mL of cold GVBE was added into each tube to stop the reaction. After samples were centrifuged for 3 min at approximately 1000× g to pellet cells, the supernatant was transferred to a cuvette and read at 412 nm in SpectaMax iD3 microplate reader. Each reading was normalized to the background, divided by Max Lysis minus background, and multiplied by 100, which equaled % of Max Lysis. Using the GraphPad Prism software, the % of Max Lysis was plotted against microliters of NHS, and the dose of NHS causing 50% and 70% hemolysis was respectively determined.
Using the NHS dose causing 70% hemolysis, the purified mutant proteins were utilized for a hemolysis inhibition assay. All mutant proteins were 2× serially diluted and mixed with the rabbit erythrocytes in the presence of NHS, resulting in the final concentration of […], 4.10, 2.05, and 1.02 μM of each mutant protein. The benchmark, CP40 peptide, was also used in this study. After each reading was subtracted from the background, it was divided by 70% hemolysis minus background and multiplied by 100. The value was considered as % of hemolysis inhibition. The percentage of hemolysis inhibition was plotted against the molecular concentration of mutant proteins by GraphPad Prism software and IC50 value was estimated based on the data plotting.

T1 sequence (P01024 23-667 limits assumed): as the sequence (P01024 23-667 limits assumed) above
T1 sequence (P01024 749-954 partner limits assumed): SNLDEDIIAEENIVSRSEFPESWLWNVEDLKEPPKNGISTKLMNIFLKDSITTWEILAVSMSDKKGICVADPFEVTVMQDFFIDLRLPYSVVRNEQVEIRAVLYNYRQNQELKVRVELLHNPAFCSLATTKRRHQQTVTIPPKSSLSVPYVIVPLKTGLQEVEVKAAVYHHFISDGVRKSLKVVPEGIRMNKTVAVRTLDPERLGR
T1 sequence (P01024 1321-1663 partner limits assumed): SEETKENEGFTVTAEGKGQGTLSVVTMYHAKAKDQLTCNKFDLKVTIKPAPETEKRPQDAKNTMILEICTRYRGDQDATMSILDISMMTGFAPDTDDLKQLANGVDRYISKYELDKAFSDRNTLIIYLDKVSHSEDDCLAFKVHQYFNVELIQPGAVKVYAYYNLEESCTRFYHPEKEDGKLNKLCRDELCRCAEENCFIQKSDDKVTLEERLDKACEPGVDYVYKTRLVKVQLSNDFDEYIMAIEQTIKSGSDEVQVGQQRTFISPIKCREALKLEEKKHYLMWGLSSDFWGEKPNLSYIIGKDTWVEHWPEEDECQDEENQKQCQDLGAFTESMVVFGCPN
Chain of C3 (P01024 23-1663): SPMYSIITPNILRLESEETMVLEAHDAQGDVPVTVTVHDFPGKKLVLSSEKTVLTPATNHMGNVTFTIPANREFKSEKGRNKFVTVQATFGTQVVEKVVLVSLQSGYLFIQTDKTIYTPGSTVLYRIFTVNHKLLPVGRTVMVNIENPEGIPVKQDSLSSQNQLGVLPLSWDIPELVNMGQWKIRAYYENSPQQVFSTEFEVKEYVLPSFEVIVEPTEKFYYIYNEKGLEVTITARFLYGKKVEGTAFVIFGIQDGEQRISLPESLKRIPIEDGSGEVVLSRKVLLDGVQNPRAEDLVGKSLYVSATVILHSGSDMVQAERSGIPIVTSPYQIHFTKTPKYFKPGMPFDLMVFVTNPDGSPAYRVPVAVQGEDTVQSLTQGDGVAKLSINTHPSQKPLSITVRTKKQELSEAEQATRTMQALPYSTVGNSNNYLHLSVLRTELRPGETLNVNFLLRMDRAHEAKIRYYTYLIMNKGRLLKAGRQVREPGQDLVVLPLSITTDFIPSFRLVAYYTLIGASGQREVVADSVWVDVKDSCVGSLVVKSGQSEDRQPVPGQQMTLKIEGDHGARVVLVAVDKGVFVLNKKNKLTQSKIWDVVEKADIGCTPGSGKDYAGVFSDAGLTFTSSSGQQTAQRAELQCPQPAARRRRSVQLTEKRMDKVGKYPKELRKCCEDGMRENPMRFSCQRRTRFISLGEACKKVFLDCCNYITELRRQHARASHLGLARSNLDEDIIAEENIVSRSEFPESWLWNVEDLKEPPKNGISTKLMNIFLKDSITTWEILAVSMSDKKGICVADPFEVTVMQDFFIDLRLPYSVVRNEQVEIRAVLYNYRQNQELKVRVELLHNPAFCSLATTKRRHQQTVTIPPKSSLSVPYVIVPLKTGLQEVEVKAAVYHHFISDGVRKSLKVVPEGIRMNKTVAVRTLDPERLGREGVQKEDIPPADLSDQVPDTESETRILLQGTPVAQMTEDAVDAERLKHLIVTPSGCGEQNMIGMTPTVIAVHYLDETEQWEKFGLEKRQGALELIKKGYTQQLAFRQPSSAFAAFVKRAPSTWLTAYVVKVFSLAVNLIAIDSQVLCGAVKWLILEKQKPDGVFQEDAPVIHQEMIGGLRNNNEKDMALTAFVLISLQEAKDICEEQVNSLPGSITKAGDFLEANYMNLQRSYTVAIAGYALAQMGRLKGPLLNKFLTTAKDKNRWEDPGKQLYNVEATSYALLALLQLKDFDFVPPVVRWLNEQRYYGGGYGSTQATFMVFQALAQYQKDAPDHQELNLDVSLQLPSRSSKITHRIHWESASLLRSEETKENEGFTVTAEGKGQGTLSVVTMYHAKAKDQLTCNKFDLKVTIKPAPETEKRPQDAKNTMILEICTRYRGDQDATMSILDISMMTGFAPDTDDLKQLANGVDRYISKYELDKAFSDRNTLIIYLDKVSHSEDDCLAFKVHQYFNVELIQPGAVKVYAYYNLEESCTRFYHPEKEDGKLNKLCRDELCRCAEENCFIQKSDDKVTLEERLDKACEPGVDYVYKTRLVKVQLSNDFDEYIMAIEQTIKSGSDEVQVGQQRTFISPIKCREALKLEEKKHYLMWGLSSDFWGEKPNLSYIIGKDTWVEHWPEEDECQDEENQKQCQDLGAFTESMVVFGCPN

CC[C@H](C)[C@H](NC(=O)[C@H](N)Cc1ccc(O)cc1)C(=O)N[C@H]1CSSC[C@@H](C(=O)N(C)[C@H](C(N)=O)[C@@H](C)CC)NC(=O)[C@H](CCCNC(=N)N)NC(=O)[C@H](Cc2c[nH]cn2)NC(=O)[C@H](C)NC(=O)CN(C)C(=O)[C@H](Cc2c[nH]c3ccccc23)NC(=O)[C@H](CC(=O)O)NC(=O)[C@H](CCC(N)=O)NC(=O)[C@H](Cc2cn(C)c3ccccc23)NC(=O)[C@H](C(C)C)NC1=O [CP40]
Kd (C3c): 0.509 nM
Chi^2 (C3c; chi^2 of fit, C3c, Biacore): 0.05
Rmax (C3c; maximal feasible signal, C3c, Biacore): 4.65
Kd (C3; Affinity to C3 KD, Table 25): 0.63 nM
Kd (C3; KD, equilibrium dissociation constant, room temperature, pH 7.4): 0.629 nM
Chi^2 (C3; chi^2 of fit): 0.10
Rmax (C3; maximal feasible signal): 25.70
Kd (C3b; Affinity to C3b KD, C3b, Biacore, Table 25): 0.32 nM
Rmax (maximal feasible signal) (C3b; C3b immobilized): 3.18
Chi^2 (C3b; C3b immobilized, fit): 0.12
Kd (C3b; KD, C3b immobilized, 1:1 (Langmuir) binding): 0.324 nM
cell lysis inhibition (Hep1c1c7 cells): marginal inhibition
cGMP production (NIH-3T3 cells): not
Estimated IC50 of hemolysis inhibition (rabbit erythrocytes; NHS dose causing 70% hemolysis): 780 nM
Bioactivity IC50 Change (rabbit erythrocytes; change of estimated IC50 relative to CP40): 1 fold
IC50 (rabbit erythrocytes; estimated IC50, read-out: Bioactivity IC50): 780 nM
